Measured values as given in patent US20240251787A1, “AGROCHEMICAL COMPOSITION, AGROCHEMICAL FORMULATION, USE OF A DIOXABICYCLOALKANE DERIVATIVE, AND, METHOD FOR THE TREATMENT AND/OR PREVENTION OF DISEASES OR PESTS IN A PLANT OR PLANT SEED” (Oxiteno S.A. Indústria e Comércio, priority 2021, published 2024).
Like-named read-outs stand apart in the source and are kept apart here.

Key:
[1] = Solvency: maximum amount of active ingredient solubilized per liter of solvent; details: for Solvency in N-methylpyrrolidone (NMP): solvent N-methylpyrrolidone (NMP); for Solvency in γ-butyrolactone: solvent γ-butyrolactone
Procedure: The above compositions were prepared at a temperature of about 50° ° C. stirred with a vortex mixer until visual inspection indicated the absence of solids, confirming solubilization of the active ingredient in the solvent.

[2] = Crystallization test of azoxystrobin solution upon dilution in water; type: physicochemical; details: azoxystrobin solution (100 g/L) in the solvent diluted 1:20 in water
Source text: The active ingredient azoxystrobin was chosen to carry out an additional test of crystallization of the active ingredient upon dilution in water. […] Among the solvents chosen for evaluation are the solvents dihydrolevoglucosenone, γ-butyrolactone, N-methylpyrrolidone, and triacetin.

[3] = tested on: Euphorbia pulcherrima (Euphorbiaceae), Poinsettia
Source text: Phytotoxicity data were generated in tests on Poinsettia (red leaves plant), since this leaf is sensitive to damage caused by chemical agents, which makes it possible to verify and compare the tested solvents.

[4] = 1-octanol/water; cited from earlier work
[5] = safety data sheet class; cited from earlier work
[6] = Euphorbia pulcherrima (Poinsettia), in vivo, 24 h

Structure (SMILES) | Solvency in N-methylpyrrolidone (NMP) [1] | Solvency in γ-butyrolactone [1] | Observation by dilution [2] | Eye irritation [5] | other results
CO/C=C(/C(=O)OC)c1ccccc1Oc1cc(Oc2ccccc2C#N)ncn1 [Azoxystrobin] | 900 g/L | 800 g/L |  |  | 
CS(=O)(=O)c1ccc(C(=O)C2C(=O)CCCC2=O)c([N+](=O)[O-])c1 [Mesotrione] | 400 g/L | 300 g/L |  |  | 
CN1CCCC1=O [NMP, N-methylpyrrolidone] |  |  | Immediate | 2A | Phytotoxicity (damage %) [3, 6]: 42%; logP [4]: −0.40; Reproductive system tox. [5]: 1B; Respiratory tox. [5]: 3; Skin irritation [5]: 2
OC(Cc1ccccc1Cl)(Cn1nc[nH]c1=S)C1(Cl)CC1 (centres unmarked) [Prothioconazole] | 1100 g/L | 900 g/L |  |  | 
CC(=O)OCC(COC(C)=O)OC(C)=O [Triacetin] |  |  | Two-phase |  | 
O=C1CCC2COC1O2 (centres unmarked) [dihydrolevoglucosenone, 6,8-dioxabicyclo[3.2.1]octan-4-one] |  |  | Two-phase | 2A | Phytotoxicity (damage %) [3, 6]: 6%; logP [4]: −1.52
O=C1CCCO1 [γ-butyrolactone] |  |  | Immediate | 1 | Phytotoxicity (damage %) ([3]; damage observed in each Poinsettia leaf after 24 h of exposure): 27%; Aquatic environment tox. [5]: 3; Central nervous system tox. [5]: 3
